# According to ChEMBL document CHEMBL1201862, “PubChem BioAssay data set” (2004):
# The source made the active and inactive calls.
# Legend:
# Aminopeptidase N = target: T1, Aminopeptidase N (Plasmodium falciparum FcB1/Columbia, UniProt O96935); test: malaria alanyl aminopeptidase activity blockers – biochemical, fluorogenic H-Leu-NHMec substrate, 1536-well (AID 1445); parameters: species or system Plasmodium falciparum 3D7, 3D7
# T1 sequence (O96935 whole entry): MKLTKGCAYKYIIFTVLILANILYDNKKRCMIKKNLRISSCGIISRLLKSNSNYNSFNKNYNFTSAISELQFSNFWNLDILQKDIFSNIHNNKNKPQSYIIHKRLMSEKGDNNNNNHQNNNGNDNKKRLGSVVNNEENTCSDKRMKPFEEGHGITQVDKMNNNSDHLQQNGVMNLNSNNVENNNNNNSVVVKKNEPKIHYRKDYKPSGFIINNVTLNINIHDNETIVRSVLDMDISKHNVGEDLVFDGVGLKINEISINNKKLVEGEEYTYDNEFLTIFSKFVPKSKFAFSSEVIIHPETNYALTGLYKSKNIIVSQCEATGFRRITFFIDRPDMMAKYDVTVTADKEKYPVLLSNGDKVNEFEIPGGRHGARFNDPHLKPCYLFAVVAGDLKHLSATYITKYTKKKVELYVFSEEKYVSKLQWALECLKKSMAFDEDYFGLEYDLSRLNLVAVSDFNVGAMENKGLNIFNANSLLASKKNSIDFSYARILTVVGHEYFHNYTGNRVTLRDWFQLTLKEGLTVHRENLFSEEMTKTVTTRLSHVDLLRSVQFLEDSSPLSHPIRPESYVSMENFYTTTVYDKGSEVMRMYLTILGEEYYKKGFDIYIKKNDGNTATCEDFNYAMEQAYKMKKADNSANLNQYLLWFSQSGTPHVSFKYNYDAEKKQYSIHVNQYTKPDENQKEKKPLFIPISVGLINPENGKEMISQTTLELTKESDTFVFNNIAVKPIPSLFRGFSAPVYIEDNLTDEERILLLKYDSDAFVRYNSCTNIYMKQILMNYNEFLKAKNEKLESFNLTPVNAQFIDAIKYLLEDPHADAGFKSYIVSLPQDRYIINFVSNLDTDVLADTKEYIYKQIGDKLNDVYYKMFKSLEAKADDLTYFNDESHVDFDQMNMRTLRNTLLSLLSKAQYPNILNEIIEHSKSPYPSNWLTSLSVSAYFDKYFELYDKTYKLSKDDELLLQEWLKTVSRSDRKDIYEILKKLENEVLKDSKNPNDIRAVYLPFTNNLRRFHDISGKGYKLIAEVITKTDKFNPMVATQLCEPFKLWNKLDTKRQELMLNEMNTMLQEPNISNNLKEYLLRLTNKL
# [1] = reduced cellular PGC1a acetyl-lysine signal – cell-based, cherry-picked samples, dose response (AID 720514); type: functional;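 further: potency may reflect raised or lowered acetylation signal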
# [2] = intracellular Trypanosoma cruzi inhibitors in host cells – cell-based, plate reader, cherry-pick samples, set 3, dose response (AID 651818); type: functional;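 further: compounds incubated with infected cells for about four days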
# Nonstructural protein 1 = Nonstructural protein 1 (Influenza A virus, UniProt Q194T2); type: functional, Influenza A virus (A/California/07/2009(H1N1))
# Nonstructural protein 1, sequence (Q194T2 whole entry): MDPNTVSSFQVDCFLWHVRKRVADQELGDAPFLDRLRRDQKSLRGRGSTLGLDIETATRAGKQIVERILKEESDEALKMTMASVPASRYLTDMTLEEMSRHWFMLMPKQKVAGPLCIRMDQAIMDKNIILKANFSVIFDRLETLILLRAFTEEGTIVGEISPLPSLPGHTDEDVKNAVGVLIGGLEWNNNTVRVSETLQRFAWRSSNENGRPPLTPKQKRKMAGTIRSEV
# [3] = target: T2, Replicative DNA helicase DnaB (Mycobacterium tuberculosis, UniProt P9WMR3); test: DnaB intein splicing inhibitors, dose response, biochemical, cell-free fluorescence (AID 449749); type: functional
# T2 sequence (P9WMR3 whole entry): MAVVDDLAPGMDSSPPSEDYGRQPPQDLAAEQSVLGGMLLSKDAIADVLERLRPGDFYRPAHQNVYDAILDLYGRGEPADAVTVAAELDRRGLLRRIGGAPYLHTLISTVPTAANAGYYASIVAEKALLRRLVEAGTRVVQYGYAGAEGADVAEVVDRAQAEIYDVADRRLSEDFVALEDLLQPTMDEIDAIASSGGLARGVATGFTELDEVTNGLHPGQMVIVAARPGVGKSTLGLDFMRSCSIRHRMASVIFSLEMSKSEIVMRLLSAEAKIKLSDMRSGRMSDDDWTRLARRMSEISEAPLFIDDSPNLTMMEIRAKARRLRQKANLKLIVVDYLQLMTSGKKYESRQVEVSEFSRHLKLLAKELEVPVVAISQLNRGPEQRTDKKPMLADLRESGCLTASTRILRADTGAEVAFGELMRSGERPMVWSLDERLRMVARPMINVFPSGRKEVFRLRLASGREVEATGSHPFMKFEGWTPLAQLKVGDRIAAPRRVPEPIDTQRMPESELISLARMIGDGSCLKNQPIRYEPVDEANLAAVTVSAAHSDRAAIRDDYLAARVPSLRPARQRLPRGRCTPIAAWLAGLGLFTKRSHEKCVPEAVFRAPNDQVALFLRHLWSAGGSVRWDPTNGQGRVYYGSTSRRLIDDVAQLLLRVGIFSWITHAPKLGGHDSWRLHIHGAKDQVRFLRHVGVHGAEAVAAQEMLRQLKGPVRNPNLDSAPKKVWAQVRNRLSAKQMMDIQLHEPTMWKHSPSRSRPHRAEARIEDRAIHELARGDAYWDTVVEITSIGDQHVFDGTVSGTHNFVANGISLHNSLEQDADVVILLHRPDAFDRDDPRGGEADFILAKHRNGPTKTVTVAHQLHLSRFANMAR
# Protein RecA = target: T3, Protein RecA (Mycobacterium tuberculosis, UniProt P9WHJ3); test: Fluorescence Cell-Free Homogeneous Dose Retest to Identify Inhibitors of RecA-Intein Splicing Activity. [Related pubchem assays (depositor defined):AID2097, AID2223, AID489010, AID492950]; type: functional
# T3 sequence (P9WHJ3 whole entry): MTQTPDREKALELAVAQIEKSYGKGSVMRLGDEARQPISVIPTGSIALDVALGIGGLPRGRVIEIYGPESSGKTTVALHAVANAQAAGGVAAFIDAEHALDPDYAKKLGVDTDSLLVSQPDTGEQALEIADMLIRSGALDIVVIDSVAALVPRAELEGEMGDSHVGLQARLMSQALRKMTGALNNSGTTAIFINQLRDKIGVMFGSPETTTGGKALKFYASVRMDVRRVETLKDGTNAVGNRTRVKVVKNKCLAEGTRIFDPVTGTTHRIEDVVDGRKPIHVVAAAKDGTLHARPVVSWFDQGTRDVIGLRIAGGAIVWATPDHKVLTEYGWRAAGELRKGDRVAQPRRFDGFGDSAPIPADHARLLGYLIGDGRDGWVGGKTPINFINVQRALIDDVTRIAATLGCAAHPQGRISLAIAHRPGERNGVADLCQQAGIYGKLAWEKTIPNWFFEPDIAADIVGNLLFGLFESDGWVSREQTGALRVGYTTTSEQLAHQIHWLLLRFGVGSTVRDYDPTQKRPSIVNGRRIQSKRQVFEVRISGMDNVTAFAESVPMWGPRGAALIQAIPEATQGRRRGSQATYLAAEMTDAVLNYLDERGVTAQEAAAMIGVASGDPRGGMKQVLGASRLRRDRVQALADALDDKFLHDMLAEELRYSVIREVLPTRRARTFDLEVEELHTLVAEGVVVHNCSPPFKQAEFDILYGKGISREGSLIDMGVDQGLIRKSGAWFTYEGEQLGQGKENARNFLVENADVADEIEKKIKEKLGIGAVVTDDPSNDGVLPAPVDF
# [4] = Luminescence Cell-Based Dose Confirmation HTS to Identify Activators of 5'UTR Stem-Loop Driven Alpha-Synuclein mRNA Translation in H4 Neuroglioblastoma Cells. [Related pubchem assays: 1829 (Project Summary), 1814 (Primary HTS)]; type: functional
# [5] = Luminescence Cell-Based Dose Response HTS to Identify Activators of Luciferase Translation or Activity in H4 […] Cells. [Related pubchem assays: 1829 (Project Summary), 1814 (Primary HTS)]; type: functional
# cells [6] = type: functional, cell-based
# H4 = test: Luminescence Cell-Based Dose Response HTS to Identify Activators of 5'UTR Stem-Loop Driven Prion Protein mRNA Translation in H4 Neuroglioblastoma Cells. [Related pubchem assays: 1829 (Project Summary), 1814 (Primary HTS)]; type: functional; conditions: Homo sapiens
# cells [7] = type: functional, cell-based; remark: listed apart in the source
# [8] = THP-1 cell cytotoxicity, dose response, cytotoxicity control for non-replicating M. tuberculosis project (AID 489025); type: functional
# cells [9] = type: functional
# [10] = loss of viability in HepG2 cells – cell-based, CellTiter-Glo, cherry-picked, cytotoxicity control for Shn3 inhibitor project, dose response (AID 624134); type: functional
# [11] = non-specific 3'UTR reporter inhibition in Clone20-Shn3RL – cell-based, Renilla luciferase, cherry-picked, counter-screen for Shn3 inhibitor project, dose response (AID 624133); type: functional
# [12] = viability of uninfected HEp-2 cells – cell-based, HTS, cytotoxicity control for RSV inhibitor project, dose response (AID 2410); type: functional; conditions: human respiratory syncytial virus
# cells [13] = test: cells
# [14] = target: T4, Heat shock factor protein 1 (Mus musculus, UniProt P38532); test: enhancement of HSF1-driven luciferase signal – cell-based, NIH3T3, luminescence, dose retest, confirmation (AID 435004); type: functional;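 further: stress induced by proteasome inhibitor MG132 added 30 min after compound; luciferase reporter driven by HSF1 response element in NIH3T3 cells; actives raise luminescence as potentiators of the MG132 stress response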
# T4 sequence (P38532 whole entry): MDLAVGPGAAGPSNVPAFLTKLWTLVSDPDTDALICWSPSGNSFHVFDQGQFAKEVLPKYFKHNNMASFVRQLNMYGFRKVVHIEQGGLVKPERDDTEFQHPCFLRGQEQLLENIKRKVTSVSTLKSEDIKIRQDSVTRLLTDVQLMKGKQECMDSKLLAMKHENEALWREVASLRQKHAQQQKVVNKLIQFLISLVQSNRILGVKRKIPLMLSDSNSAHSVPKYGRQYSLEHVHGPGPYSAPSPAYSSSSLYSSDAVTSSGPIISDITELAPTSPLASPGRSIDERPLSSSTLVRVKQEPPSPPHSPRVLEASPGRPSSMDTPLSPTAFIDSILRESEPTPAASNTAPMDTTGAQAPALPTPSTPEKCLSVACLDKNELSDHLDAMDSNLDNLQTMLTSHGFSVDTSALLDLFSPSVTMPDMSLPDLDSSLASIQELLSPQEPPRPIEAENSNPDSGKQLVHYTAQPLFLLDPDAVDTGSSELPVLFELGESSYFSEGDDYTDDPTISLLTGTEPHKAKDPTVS
# [15] = blockers of HIV-1 envelope-mediated cell-cell fusion – cherry-pick, dose response (AID 652057); type: functional, cell-based
# [16] = HIV-1 AD8 envelope cell-cell fusion blockers – cherry-pick, dose response (AID 652062); type: functional, cell-based;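 further: luciferase signal from cell-cell fusion driven by HIV-1 clade B AD8 Env; potency is for inhibitors of fusion seen as a drop in luminescence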
structure (smiles),measurement,setting,value
CC(=O)N1C(=O)/C(=C2\SC(=S)N(NS(=O)(=O)c3ccc(C)cc3)C2=O)c2ccccc21,IC50,Aminopeptidase N,3.22 µM (active)
Cc1cc(C)c(NC(=O)c2ccc(S(=O)(=O)N(C)C)cc2)c(C)n1,AC50,[1],29.4 µM (active)
C[C@H]1CN([C@@H](C)CO)C(=O)c2cccc(NC(=O)c3nc4ccccc4s3)c2O[C@@H]1CN(C)Cc1ccc(-c2ccccc2)cc1,AC50,[2],1.22 µM (active)
COCCOc1ccc(C(F)(F)F)cc1NC(=O)CN1C(=O)NC2(CCCc3ccccc32)C1=O (stereo not given),AC50,[1],33.9 µM (active)
C[C@H](CO)N1C[C@H](C)[C@@H](CN(C)Cc2ccc(-c3ccccc3)cc2)Oc2ccc(NS(=O)(=O)c3ccccc3)cc2C1=O,AC50,[2],4.49 µM (active)
COc1ccc(NC(=O)N(C)C[C@H]2Oc3c(NS(=O)(=O)c4ccc(F)cc4)cccc3C(=O)N([C@@H](C)CO)C[C@H]2C)cc1,AC50,[2],4.14 µM (active)
Cc1ccc2c(c1)-c1c(ssc1=S)C(C)(C)N2C(=O)CSC1=NCCS1,IC50,Nonstructural protein 1,24.9 µM (active)
same,AC50,[3],28.3 µM (active)
same,EC50,Protein RecA,9.8 µM (active)
CCc1ccc(OCC(=O)Nc2ccncc2)c(Br)c1,EC50,[4],13.9 µM (active)
same,EC50,[5],17.4 µM (active)
same,EC50,cells [6],> 350 µM (not active)
same,EC50,H4,> 120 µM (not active)
same,EC50,cells [7],> 350 µM (not active)
same,CC50,[8],> 40 µM (active)
same,IC50,cells [9],38.1 µM (active)
C[C@@H]1CN([C@@H](C)CO)S(=O)(=O)c2ccc(-c3ccc(F)cc3)cc2O[C@H]1CN(C)C(=O)C1CCCCC1,AC50,[1],17.1 µM (active)
C[C@@H]1CCCCO[C@@H](CN(C)Cc2ccc(C(F)(F)F)cc2)[C@@H](C)CN([C@H](C)CO)C(=O)c2cc(NC(=O)NC3CCCCC3)ccc2O1,AC50,[2],6.76 µM (active)
CC1=NN(c2cccc([N+](=O)[O-])c2)C(=O)C1,AC50,[3],14.4 µM (active)
same,EC50,Protein RecA,19.5 µM (active)
same,AC50,[10],> 70 µM (inactive)
same,AC50,[11],29.5 µM (active)
COc1ccc(S(=O)(=O)NC2=NC(=O)/C(=C\c3ccco3)S2)cc1,IC50,Aminopeptidase N,99.1 µM (active)
CC(C)[C@H](NC(=O)N1CCn2c1nc1ccccc12)C(=O)NCc1ccccc1Cl,CC50,[12],46.3 µM (active)
same,IC50,cells [13],35.8 µM (active)
C[C@@H]1CCCCO[C@H](CN(C)Cc2ccc(C(F)(F)F)cc2)[C@@H](C)CN([C@H](C)CO)C(=O)c2cc(NC(=O)Nc3cccc4ccccc34)ccc2O1,AC50,[2],2.91 µM (active)
COc1ccc(C(=O)NNC(=O)CSc2nnc(-c3ccc(O)cc3)n2C)cc1,IC50,Aminopeptidase N,56.8 µM (active)
Cc1ccc(-n2c(=O)c3sccc3n(Cc3cc(=O)n4ccccc4n3)c2=O)cc1F,IC50,cells [13],9.86 µM (active)
CCOc1ccc(CNc2ccc(N3CCN(Cc4ccccc4)CC3)cc2)cc1,IC50,Nonstructural protein 1,49.6 µM (active)
same,EC50,[14],> 260 µM (inactive)
Cc1cc(OCC(=O)NNC(=O)c2cnccn2)cc(C)c1Cl,AC50,[1],29.6 µM (active)
C[C@H](C(=O)N(C)C[C@@H]1OCc2ccccc2-c2ccccc2C(=O)N([C@H](C)CO)C[C@@H]1C)c1ccccc1,AC50,[15],< 0.26 µM (active)
same,AC50,[16],< 0.26 µM (active)
O=c1c2cc(Cl)ccc2oc2nc3n(c(=O)c12)CCCS3,CC50,[8],> 40 µM (active)
same,IC50,cells [9],2.92 µM (active)
